# Measured values reported in PMC12888861, “Antibacterial activity of enmetazobactam against Acinetobacter spp.: a molecular dissection of mechanism of action and resistance determinants” (Antimicrobial Agents and Chemotherapy, 2025).
# Where two headings read alike, the source gives them in different places.
# Tested on: A. non-baumannii isolates (n = 87)
# Test: MIC, broth microdilution (EUCAST), A. non-baumannii isolates
# Type: cell-based, Acinetobacter spp. (non-baumannii)
# Settings: for MIC: read-out: MIC
# From the text: The bacterial strains used in this study comprised 208 clinical isolates from the Spanish National Acinetobacter spp. 2020 Multicenter Collection, which was previously characterized in detail by our research group, including whole-genome sequencing, phylogenetics studies, clonal dynamics, and resistance mechanisms ([2], [29]). Additionally, a collection of A. baumannii ATCC 17978 transformants coding the blaOXA-23, blaOXA-24/40, blaOXA-51, blaOXA-58, blaOXA-143, and blaOXA-201 genes, previously constructed and described by our group ([30]), was used to determine the activity of enmetazobactam against strains carrying the main CHDLs of A. baumannii.
# The antimicrobial susceptibility of the 208 Acinetobacter spp. isolates was assessed using the broth microdilution method, as described in the European Committee on Antimicrobial Susceptibility Testing (EUCAST) v.15 guidelines (http://www.eucast.org/clinical_breakpoints). […] MICs for enmetazobactam alone were assessed as well. […] Subsequently, MIC testing was also conducted with a collection of A. baumannii ATCC 17978 transformants expressing clinically relevant OXA-like carbapenemase genes.
# The A. baumannii ATCC 19606 strain was used as the reference strain in all susceptibility experiments, in duplicate assays. Antibiotics were purchased from Sigma-Aldrich, except enmetazobactam and durlobactam, which were obtained from Advanz Pharma and MedChemExpress, respectively.
# [1] = Acinetobacter, A. non-baumannii isolates (n=87), ETZ fixed 8 mg/L in combinations
smiles,measurement,setting,value
C[n+]1ccn(C[C@@]2(C)[C@H](C(=O)[O-])N3C(=O)C[C@H]3S2(=O)=O)n1 [enmetazobactam],MIC,"Acinetobacter pittii, isolate NO-Ab90, Acinetobacter pittii, in combinations ETZ fixed at 8 mg/L",2 µg/mL
same,MIC,"Acinetobacter pittii, isolate NO-Ab97, Acinetobacter pittii, in combinations ETZ fixed at 8 mg/L",2 µg/mL
same,MIC,"Acinetobacter pittii, isolate NO-Ab105, Acinetobacter pittii, in combinations ETZ fixed at 8 mg/L",2 µg/mL
same,MIC,"Acinetobacter pittii, isolate NO-Ab106, Acinetobacter pittii, in combinations ETZ fixed at 8 mg/L",2 µg/mL
same,MIC,"Acinetobacter pittii, isolate NO-Ab107, Acinetobacter pittii, in combinations ETZ fixed at 8 mg/L",1 µg/mL
same,MIC,"Acinetobacter pittii, isolate NO-Ab111, Acinetobacter pittii, in combinations ETZ fixed at 8 mg/L",2 µg/mL
same,MIC,"Acinetobacter pittii, isolate NO-Ab113, Acinetobacter pittii, in combinations ETZ fixed at 8 mg/L",2 µg/mL
same,MIC,"Acinetobacter pittii, isolate NO-Ab118, Acinetobacter pittii, in combinations ETZ fixed at 8 mg/L",2 µg/mL
same,MIC,"Acinetobacter pittii, isolate NO-Ab135, Acinetobacter pittii, in combinations ETZ fixed at 8 mg/L",2 µg/mL
same,MIC,"Acinetobacter pittii, isolate NO-Ab145, Acinetobacter pittii, in combinations ETZ fixed at 8 mg/L",2 µg/mL
same,MIC,"Acinetobacter pittii, isolate NO-Ab151, Acinetobacter pittii, in combinations ETZ fixed at 8 mg/L",4 µg/mL
same,MIC,"Acinetobacter pittii, isolate NO-Ab154, Acinetobacter pittii, in combinations ETZ fixed at 8 mg/L",2 µg/mL
same,MIC,"Acinetobacter pittii, isolate NO-Ab157, Acinetobacter pittii, in combinations ETZ fixed at 8 mg/L",4 µg/mL
same,MIC,"Acinetobacter pittii, isolate NO-Ab162, Acinetobacter pittii, in combinations ETZ fixed at 8 mg/L",4 µg/mL
same,MIC,"Acinetobacter pittii, isolate NO-Ab164, Acinetobacter pittii, in combinations ETZ fixed at 8 mg/L",2 µg/mL
same,MIC,"Acinetobacter pittii, isolate NO-Ab178, Acinetobacter pittii, in combinations ETZ fixed at 8 mg/L",2 µg/mL
same,MIC,"Acinetobacter pittii, isolate NO-Ab197, Acinetobacter pittii, in combinations ETZ fixed at 8 mg/L",2 µg/mL
same,MIC,"Acinetobacter proteolyticus, isolate NO-Ab99, Acinetobacter proteolyticus, in combinations ETZ fixed at 8 mg/L",2 µg/mL
same,MIC,"Acinetobacter proteolyticus, isolate NO-Ab102, Acinetobacter proteolyticus, in combinations ETZ fixed at 8 mg/L",4 µg/mL
same,MIC,"Acinetobacter proteolyticus, isolate NO-Ab210, Acinetobacter proteolyticus, in combinations ETZ fixed at 8 mg/L",1 µg/mL
same,MIC,"Acinetobacter radioresistens, isolate NO-Ab175, Acinetobacter radioresistens, in combinations ETZ fixed at 8 mg/L",1 µg/mL
same,MIC,"Acinetobacter radioresistens, isolate NO-Ab215, Acinetobacter radioresistens, in combinations ETZ fixed at 8 mg/L",0.5 µg/mL
same,MIC,"Acinetobacter ursingii, isolate NO-Ab3, Acinetobacter ursingii, in combinations ETZ fixed at 8 mg/L",0.25 µg/mL
same,MIC,"Acinetobacter ursingii, isolate NO-Ab64, Acinetobacter ursingii, in combinations ETZ fixed at 8 mg/L",1 µg/mL
same,MIC,"Acinetobacter ursingii, isolate NO-Ab87, Acinetobacter ursingii, in combinations ETZ fixed at 8 mg/L",0.5 µg/mL
same,MIC,"Acinetobacter ursingii, isolate NO-Ab103, Acinetobacter ursingii, in combinations ETZ fixed at 8 mg/L",0.5 µg/mL
same,MIC,"Acinetobacter ursingii, isolate NO-Ab119, Acinetobacter ursingii, in combinations ETZ fixed at 8 mg/L",8 µg/mL
same,MIC,"Acinetobacter ursingii, isolate NO-Ab120, Acinetobacter ursingii, in combinations ETZ fixed at 8 mg/L",1 µg/mL
same,MIC,"Acinetobacter ursingii, isolate NO-Ab123, Acinetobacter ursingii, in combinations ETZ fixed at 8 mg/L",2 µg/mL
same,MIC,"Acinetobacter ursingii, isolate NO-Ab126, Acinetobacter ursingii, in combinations ETZ fixed at 8 mg/L",0.5 µg/mL
same,MIC,"Acinetobacter ursingii, isolate NO-Ab147, Acinetobacter ursingii, in combinations ETZ fixed at 8 mg/L",4 µg/mL
same,MIC,"Acinetobacter ursingii, isolate NO-Ab155, Acinetobacter ursingii, in combinations ETZ fixed at 8 mg/L",4 µg/mL
same,MIC,"Acinetobacter ursingii, isolate NO-Ab165, Acinetobacter ursingii, in combinations ETZ fixed at 8 mg/L",2 µg/mL
same,MIC,"Acinetobacter ursingii, isolate NO-Ab166, Acinetobacter ursingii, in combinations ETZ fixed at 8 mg/L",0.5 µg/mL
same,MIC,"Acinetobacter ursingii, isolate NO-Ab214, Acinetobacter ursingii, in combinations ETZ fixed at 8 mg/L",0.5 µg/mL
same,MIC,"Acinetobacter ursingii, isolate NO-Ab221, Acinetobacter ursingii, in combinations ETZ fixed at 8 mg/L",1 µg/mL
same,MIC,"Acinetobacter ursingii, isolate NO-Ab222, Acinetobacter ursingii, in combinations ETZ fixed at 8 mg/L",1 µg/mL
same,MIC,"Acinetobacter, MBC set, isolate NO-Ab84, A. bereziniae",1 µg/mL
same,MIC,"Acinetobacter, MBC set, isolate NO-Ab88, A. dijkshoorniae",2 µg/mL
same,MIC,"Acinetobacter, isolate NO-Ab146, Acinetobacter iwoffii, in combinations ETZ fixed at 8 mg/L",4 µg/mL
same,MIC,"Acinetobacter, isolate NO-Ab159, Acinetobacter iwoffii, in combinations ETZ fixed at 8 mg/L",2 µg/mL
same,MIC50,[1],2 µg/mL
same,MIC90,[1],4 µg/mL
same,MIC distribution 0.25,"cumulative share of A. non-baumannii isolates (n=87) at MIC 0.25 mg/L, ETZ fixed 8 mg/L in combinations",1.1
same,MIC distribution 0.5,"cumulative share of A. non-baumannii isolates (n=87) at MIC 0.5 mg/L, ETZ fixed 8 mg/L in combinations",9.2
same,MIC distribution 1,"cumulative share of A. non-baumannii isolates (n=87) at MIC 1 mg/L, ETZ fixed 8 mg/L in combinations",29.9
same,MIC distribution 2,"cumulative share of A. non-baumannii isolates (n=87) at MIC 2 mg/L, ETZ fixed 8 mg/L in combinations",75.9
same,MIC distribution 4,"cumulative share of A. non-baumannii isolates (n=87) at MIC 4 mg/L, ETZ fixed 8 mg/L in combinations",96.6
same,MIC distribution 8,"cumulative share of A. non-baumannii isolates (n=87) at MIC 8 mg/L, ETZ fixed 8 mg/L in combinations",98.9
same,MIC distribution 16,"cumulative share of A. non-baumannii isolates (n=87) at MIC 16 mg/L, ETZ fixed 8 mg/L in combinations",100
same,MIC distribution 32,"cumulative share of A. non-baumannii isolates (n=87) at MIC 32 mg/L, ETZ fixed 8 mg/L in combinations",100
same,MIC distribution ≤0.06,"cumulative share of A. non-baumannii isolates (n=87) at MIC ≤0.06 mg/L, ETZ fixed 8 mg/L in combinations",0
